Source: ChEMBL document CHEMBL4828703, “Structure-activity relationship study of THZ531 derivatives enables the discovery of BSJ-01-175 as a dual CDK12/13 covalent inhibitor with efficacy in Ewing sarcoma” (Eur J Med Chem, 2021)
Calls of active or inactive are those of the source. The rule behind the calls is not given here.

Legend:
[1] = target: Mitogen-activated protein kinase 9 (Homo sapiens) (UniProt P45984); assay: Inhibition of ADP(ATP)-biotin probe binding to JNK2 in human Kelly cells at 1 uM incubated for 6 hrs by KiNativ profiling analysis; type: cell-based
[2] = target: Cyclin-dependent kinase 12 (Homo sapiens) (UniProt Q9NYV4); assay: Inhibition of ADP(ATP)-biotin probe binding to CDK12 in human Kelly cells at 1 uM incubated for 6 hrs by KiNativ profiling analysis; type: cell-based
[3] = target: Cyclin-dependent kinase 12 (Homo sapiens) (UniProt Q9NYV4); assay: Binding affinity to CDK12 in CDK12/CyclinK complex (unknown origin) assessed as increase in CDK12 mass at 10-fold excess concentration incubated for 1 hr by LC-MS analysis
[4] = Downregulation of RNA polymerase 2 CTD phosphorylation at Ser7 residue in human Jurkat cells at 2.5 uM incubated for 6 hrs by immunoblotting analysis; type: functional
[5] = Half life in Swiss albino mouse at 3 mg/kg, iv measured upto 24 hrs by LC-MS/MS analysis; type: ADME, organism-based; settings: in vivo
[6] = Downregulation of RNA polymerase 2 CTD phosphorylation at Ser5 residue in human Jurkat cells at 2.5 uM incubated for 6 hrs by immunoblotting analysis; type: functional
[7] = Downregulation of RNA polymerase 2 CTD phosphorylation at Ser5 residue in human Jurkat cells at 0.5 uM incubated for 6 hrs by immunoblotting analysis; type: functional
[8] = Downregulation of RNA polymerase 2 CTD phosphorylation at Ser5 residue in human Jurkat cells at 5 uM incubated for 6 hrs by immunoblotting analysis; type: functional
[9] = target: Cyclin-dependent kinase 12 (Homo sapiens) (UniProt Q9NYV4); assay: Covalent binding affinity to CDK12 in CDK12/CyclinK complex (unknown origin) assessed as covalent labeling of Cys1039 in gluc-protease digested CDK12 peptide 1025LASKMAPPDLPHWQDCHE1041 by CE-MS analysis
[10] = target: DNA-dependent protein kinase catalytic subunit (Homo sapiens, UniProt P78527); assay: Inhibition of human DNAPK by Invitrogen ADAPTA or Z'LYTE biochemical kinase assay
[11] = target: Serine/threonine-protein kinase 10 (Homo sapiens) (UniProt O94804); assay: Inhibition of ADP(ATP)-biotin probe binding to LOK in human Kelly cells at 1 uM incubated for 6 hrs by KiNativ profiling analysis; type: cell-based
[12] = Antiproliferative activity against human Kelly cells harboring wild type CDK12 assessed as reduction in cell viability incubated for 72 hrs by CelTiter-Glo assay; type: functional, cell-based
[13] = target: T1, Cyclin-dependent kinase 12/13 (Homo sapiens) (UniProt Q14004+Q9NYV4); assay: Inhibition of CDK12/13 in human jurkat cells assessed as reduction in RNA polymerase 2 CTD phosphorylation at Ser2 residue at 1 uM measured after 6 hrs by immunoblotting analysis; type: cell-based
[14] = AUClast in Swiss albino mouse at 3 mg/kg, iv measured upto 24 hrs by LC-MS/MS analysis; type: ADME, organism-based; set-up: route intravenous, dose 3 mg/kg, time <=24; settings: in vivo
[15] = Antiproliferative activity against human TC71 cells assessed as reduction in cell viability; type: functional, cell-based; settings: TC-71
[16] = target: Mitogen-activated protein kinase 10 (Homo sapiens) (UniProt P53779); assay: Inhibition of ADP(ATP)-biotin probe binding to JNK3 in human Kelly cells at 1 uM incubated for 6 hrs by KiNativ profiling analysis; type: cell-based
[17] = target: Cyclin-dependent kinase 7/ cyclin H (Homo sapiens, UniProt P50613); assay: Inhibition of CDK7/Cyclin H (unknown origin); type: protein-complex assay
[18] = Downregulation of RNA polymerase 2 in human Jurkat cells at 1 uM measured after 6 hrs by immunoblotting analysis; type: functional
[19] = target: Ribosomal protein S6 kinase alpha-1 (Homo sapiens) (UniProt Q15418); assay: Inhibition of ADP(ATP)-biotin probe binding to RSK1 domain 1 in human Kelly cells at 1 uM incubated for 6 hrs by KiNativ profiling analysis; type: cell-based
[20] = target: STE20-related kinase adapter protein beta (Homo sapiens) (UniProt Q9C0K7); assay: Inhibition of ADP(ATP)-biotin probe binding to STLK6 in human Kelly cells at 1 uM incubated for 6 hrs by KiNativ profiling analysis; type: cell-based
[21] = target: Cyclin-dependent kinase 7 (Homo sapiens) (UniProt P50613); assay: Inhibition of THZ1-biotin binding from CDK7 in human Jurkat cells at 5 uM incubated for 6 hrs by CyclinH antibody based competitive pull down assay; type: cell-based
Cyclin-K (Homo sapiens) = Cyclin-K (Homo sapiens) (UniProt O75909); assay: Binding affinity to CyclinK in CDK12/CyclinK complex (unknown origin) at 10-fold excess concentration incubated for 1 hr by LC-MS analysis
[22] = target: RAF proto-oncogene serine/threonine-protein kinase (Homo sapiens) (UniProt P04049); assay: Inhibition of ADP(ATP)-biotin probe binding to RAF1 in human Kelly cells at 1 uM incubated for 6 hrs by KiNativ profiling analysis; type: cell-based
[23] = Antiproliferative activity against human Kelly cells harboring CDK12 C1039F mutant assessed as reduction in cell viability incubated for 72 hrs by CellTiter-Glo assay; type: functional, cell-based
[24] = target: T1, Cyclin-dependent kinase 12/13 (Homo sapiens); assay: Inhibition of THZ1-biotin binding from CDK12/13 in human Jurkat cells incubated for 3 hrs followed by drug wash-out for 24 hrs by competitive pull down assay; type: cell-based
[25] = target: Mitogen-activated protein kinase 8 (Homo sapiens) (UniProt P45983); assay: Inhibition of ADP(ATP)-biotin probe binding to JNK1 in human Kelly cells at 1 uM incubated for 6 hrs by KiNativ profiling analysis; type: cell-based
TC-71 = assay: Antitumor activity against human TC71 cells xenografted in nude mouse assessed as suppression of tumor growth at 10 mg/kg, ip for 21 days by caliper analysis; type: functional, organism-based; settings: time 21.0 day
[26] = Cmax in Swiss albino mouse at 10 mg/kg, po measured upto 24 hrs by LC-MS/MS analysis; type: ADME, organism-based; set-up: route oral, dose 10 mg/kg, time <=24; settings: in vivo
[27] = Tmax in Swiss albino mouse at 10 mg/kg, po measured upto 24 hrs by LC-MS/MS analysis; type: ADME, organism-based; settings: in vivo
[28] = Oral bioavailability in Swiss albino mouse at 10 mg/kg measured upto 24 hrs by LC-MS/MS analysis; type: ADME, organism-based; settings: in vivo
[29] = AUClast in Swiss albino mouse at 10 mg/kg, po measured upto 24 hrs by LC-MS/MS analysis; type: ADME, organism-based; set-up: route oral, dose 10 mg/kg, time <=24; settings: in vivo
[30] = target: Ribosomal protein S6 kinase alpha-4 (Homo sapiens) (UniProt O75676); assay: Inhibition of ADP(ATP)-biotin probe binding to MSK2 domain 1 in human Kelly cells at 1 uM incubated for 6 hrs by KiNativ profiling analysis; type: cell-based
[31] = Downregulation of RNA polymerase 2 in human Jurkat cells at 2.5 uM measured after 6 hrs by immunoblotting analysis; type: functional
[32] = Downregulation of RNA polymerase 2 CTD phosphorylation at Ser7 residue in human Jurkat cells at 5 uM incubated for 6 hrs by immunoblotting analysis; type: functional
[33] = Volume of distribution at steady state in Swiss albino mouse at 3 mg/kg, iv measured upto 24 hrs by LC-MS/MS analysis; type: ADME, organism-based; settings: in vivo
[34] = target: T1, Cyclin-dependent kinase 12/13 (Homo sapiens); assay: Inhibition of CDK12/13 in human Jurkat cells assessed as BRCA1 gene expression at 0.5 to 1 uM incubated for 4 hrs by RT-qPCR analysis; type: cell-based; set-up: scale not given: the % may be the effect or the level left; settings: dose 0.5-1 µM

Cyclin-dependent kinase 12 (Homo sapiens), sequence (Q9NYV4 whole entry, looked up): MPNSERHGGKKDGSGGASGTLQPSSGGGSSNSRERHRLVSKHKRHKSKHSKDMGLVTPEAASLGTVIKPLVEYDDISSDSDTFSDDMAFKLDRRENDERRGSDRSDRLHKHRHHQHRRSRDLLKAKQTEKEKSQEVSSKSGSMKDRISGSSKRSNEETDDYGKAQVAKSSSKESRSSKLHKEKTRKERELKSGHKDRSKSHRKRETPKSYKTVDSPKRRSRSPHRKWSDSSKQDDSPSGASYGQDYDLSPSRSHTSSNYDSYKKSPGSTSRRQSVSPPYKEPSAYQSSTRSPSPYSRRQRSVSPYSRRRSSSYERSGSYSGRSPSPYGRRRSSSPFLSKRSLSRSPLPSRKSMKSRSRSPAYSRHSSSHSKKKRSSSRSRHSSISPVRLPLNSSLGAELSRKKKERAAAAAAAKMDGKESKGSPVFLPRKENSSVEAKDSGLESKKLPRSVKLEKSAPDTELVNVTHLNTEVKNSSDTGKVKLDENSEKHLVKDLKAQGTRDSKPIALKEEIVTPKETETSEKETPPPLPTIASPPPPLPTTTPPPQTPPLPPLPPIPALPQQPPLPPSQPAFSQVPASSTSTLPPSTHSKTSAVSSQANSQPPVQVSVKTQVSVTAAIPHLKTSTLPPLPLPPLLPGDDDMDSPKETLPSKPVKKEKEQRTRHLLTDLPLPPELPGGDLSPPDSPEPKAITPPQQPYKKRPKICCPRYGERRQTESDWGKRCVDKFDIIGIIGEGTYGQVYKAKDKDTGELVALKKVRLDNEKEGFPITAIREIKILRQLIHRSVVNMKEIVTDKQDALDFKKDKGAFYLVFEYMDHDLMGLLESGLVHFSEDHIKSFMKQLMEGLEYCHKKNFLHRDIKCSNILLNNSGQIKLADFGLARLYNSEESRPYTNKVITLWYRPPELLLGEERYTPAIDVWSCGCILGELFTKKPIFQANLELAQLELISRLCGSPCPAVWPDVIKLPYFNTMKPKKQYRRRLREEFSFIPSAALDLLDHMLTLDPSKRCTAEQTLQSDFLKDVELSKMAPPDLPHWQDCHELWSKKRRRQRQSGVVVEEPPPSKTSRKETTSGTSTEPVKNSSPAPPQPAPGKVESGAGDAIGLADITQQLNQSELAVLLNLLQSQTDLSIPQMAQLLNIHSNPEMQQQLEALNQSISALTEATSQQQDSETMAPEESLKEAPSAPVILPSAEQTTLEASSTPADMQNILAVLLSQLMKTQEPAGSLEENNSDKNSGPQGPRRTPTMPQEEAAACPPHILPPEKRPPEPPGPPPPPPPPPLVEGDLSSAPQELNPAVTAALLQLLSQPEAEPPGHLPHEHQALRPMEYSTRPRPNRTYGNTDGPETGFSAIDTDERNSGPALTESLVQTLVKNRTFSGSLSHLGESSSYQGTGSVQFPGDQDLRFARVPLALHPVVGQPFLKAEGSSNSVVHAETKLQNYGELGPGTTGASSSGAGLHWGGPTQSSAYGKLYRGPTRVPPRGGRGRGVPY
Serine/threonine-protein kinase 10 (Homo sapiens), sequence (O94804 whole entry, looked up): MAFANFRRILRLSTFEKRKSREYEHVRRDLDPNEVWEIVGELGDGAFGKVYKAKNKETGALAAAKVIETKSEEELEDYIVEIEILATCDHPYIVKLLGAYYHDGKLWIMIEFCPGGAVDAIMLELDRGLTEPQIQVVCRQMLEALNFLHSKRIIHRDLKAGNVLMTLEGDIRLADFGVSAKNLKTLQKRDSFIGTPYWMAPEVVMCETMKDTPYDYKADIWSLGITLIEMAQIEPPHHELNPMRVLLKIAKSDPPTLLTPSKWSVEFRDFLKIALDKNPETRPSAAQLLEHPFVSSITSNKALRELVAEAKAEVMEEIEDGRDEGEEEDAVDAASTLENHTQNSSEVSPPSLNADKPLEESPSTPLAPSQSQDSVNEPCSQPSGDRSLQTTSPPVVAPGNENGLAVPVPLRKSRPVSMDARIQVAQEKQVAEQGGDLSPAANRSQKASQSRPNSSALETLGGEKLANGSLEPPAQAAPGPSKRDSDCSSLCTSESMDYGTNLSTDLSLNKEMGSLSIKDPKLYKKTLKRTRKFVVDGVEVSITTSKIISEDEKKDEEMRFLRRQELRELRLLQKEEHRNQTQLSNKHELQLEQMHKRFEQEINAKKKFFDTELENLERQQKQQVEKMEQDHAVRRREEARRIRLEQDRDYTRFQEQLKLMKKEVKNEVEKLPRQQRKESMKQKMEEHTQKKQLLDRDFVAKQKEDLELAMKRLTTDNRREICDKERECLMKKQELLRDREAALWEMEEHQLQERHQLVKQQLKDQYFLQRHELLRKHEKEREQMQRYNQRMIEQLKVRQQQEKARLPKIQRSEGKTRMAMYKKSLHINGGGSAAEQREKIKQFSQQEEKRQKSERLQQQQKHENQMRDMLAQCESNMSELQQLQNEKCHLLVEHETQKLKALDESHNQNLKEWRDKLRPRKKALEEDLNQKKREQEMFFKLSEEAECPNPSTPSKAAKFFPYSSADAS
Cyclin-K (Homo sapiens), sequence (O75909 whole entry): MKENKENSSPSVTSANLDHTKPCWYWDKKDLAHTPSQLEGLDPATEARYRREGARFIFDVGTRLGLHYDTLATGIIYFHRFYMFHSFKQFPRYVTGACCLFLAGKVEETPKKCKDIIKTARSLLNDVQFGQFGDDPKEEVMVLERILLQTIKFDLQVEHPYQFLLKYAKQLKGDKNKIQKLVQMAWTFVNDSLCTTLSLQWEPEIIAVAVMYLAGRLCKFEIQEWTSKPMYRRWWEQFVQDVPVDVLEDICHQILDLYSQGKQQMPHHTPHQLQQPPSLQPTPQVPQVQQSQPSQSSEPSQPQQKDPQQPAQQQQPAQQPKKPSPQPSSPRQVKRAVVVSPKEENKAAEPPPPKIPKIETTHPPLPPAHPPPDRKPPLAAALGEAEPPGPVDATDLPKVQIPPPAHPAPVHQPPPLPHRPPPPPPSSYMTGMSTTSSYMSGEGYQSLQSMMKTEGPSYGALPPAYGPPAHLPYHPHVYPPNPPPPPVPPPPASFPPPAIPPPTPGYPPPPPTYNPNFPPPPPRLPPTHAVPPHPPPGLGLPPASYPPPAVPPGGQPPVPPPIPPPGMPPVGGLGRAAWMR
Cyclin-dependent kinase 7/ cyclin H, sequence (P51946 whole entry): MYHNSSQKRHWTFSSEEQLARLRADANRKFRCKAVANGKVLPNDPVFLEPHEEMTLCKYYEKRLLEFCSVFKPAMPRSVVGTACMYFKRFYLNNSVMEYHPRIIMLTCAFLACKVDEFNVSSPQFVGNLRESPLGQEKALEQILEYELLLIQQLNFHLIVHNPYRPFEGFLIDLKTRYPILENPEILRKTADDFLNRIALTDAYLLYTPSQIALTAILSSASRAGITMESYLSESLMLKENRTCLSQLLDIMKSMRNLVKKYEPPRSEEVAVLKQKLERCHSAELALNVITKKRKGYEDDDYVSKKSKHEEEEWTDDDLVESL
Cyclin-dependent kinase 7/ cyclin H, sequence (P50613 whole entry): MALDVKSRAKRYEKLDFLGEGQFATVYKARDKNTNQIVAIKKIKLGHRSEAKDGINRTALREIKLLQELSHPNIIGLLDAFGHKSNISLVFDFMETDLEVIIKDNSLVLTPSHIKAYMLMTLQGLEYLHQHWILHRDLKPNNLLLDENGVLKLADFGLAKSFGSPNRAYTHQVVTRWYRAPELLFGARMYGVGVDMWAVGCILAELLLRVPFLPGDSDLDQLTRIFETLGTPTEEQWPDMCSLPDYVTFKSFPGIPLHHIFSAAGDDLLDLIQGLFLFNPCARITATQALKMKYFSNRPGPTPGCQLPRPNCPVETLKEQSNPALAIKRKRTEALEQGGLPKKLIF
Mitogen-activated protein kinase 9 (Homo sapiens), sequence (P45984 whole entry, looked up): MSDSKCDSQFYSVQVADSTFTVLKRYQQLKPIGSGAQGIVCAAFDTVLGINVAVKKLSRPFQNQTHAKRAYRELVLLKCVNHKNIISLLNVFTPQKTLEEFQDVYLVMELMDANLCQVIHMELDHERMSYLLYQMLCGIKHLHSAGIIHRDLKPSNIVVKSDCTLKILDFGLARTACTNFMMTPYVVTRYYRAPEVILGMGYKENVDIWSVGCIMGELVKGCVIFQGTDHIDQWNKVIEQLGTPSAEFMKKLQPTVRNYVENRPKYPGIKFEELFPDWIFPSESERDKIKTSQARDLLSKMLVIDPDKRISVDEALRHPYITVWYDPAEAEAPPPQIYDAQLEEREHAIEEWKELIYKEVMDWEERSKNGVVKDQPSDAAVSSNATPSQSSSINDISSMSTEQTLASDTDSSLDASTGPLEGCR
Ribosomal protein S6 kinase alpha-4 (Homo sapiens), sequence (O75676 whole entry, looked up, the tested form may be a part): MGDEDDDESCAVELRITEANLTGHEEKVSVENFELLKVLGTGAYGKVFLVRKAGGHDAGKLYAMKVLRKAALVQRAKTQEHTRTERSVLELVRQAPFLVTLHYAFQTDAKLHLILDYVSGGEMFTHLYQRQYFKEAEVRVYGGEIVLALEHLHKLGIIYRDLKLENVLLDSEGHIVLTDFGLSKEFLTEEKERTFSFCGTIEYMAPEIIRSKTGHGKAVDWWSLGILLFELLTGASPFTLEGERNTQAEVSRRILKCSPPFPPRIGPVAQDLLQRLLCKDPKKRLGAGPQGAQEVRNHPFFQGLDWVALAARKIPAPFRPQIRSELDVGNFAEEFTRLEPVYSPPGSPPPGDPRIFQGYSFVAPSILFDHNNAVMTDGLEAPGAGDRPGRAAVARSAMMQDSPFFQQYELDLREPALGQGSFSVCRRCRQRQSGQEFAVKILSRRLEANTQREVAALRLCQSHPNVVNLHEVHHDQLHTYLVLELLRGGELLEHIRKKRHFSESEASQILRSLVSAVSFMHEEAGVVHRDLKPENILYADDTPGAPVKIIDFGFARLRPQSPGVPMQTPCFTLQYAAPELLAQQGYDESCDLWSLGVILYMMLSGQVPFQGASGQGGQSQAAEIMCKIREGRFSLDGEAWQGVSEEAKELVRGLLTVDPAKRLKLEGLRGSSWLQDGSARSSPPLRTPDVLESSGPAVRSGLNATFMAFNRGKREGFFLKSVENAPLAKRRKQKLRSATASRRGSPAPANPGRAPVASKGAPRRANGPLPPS
Cyclin-dependent kinase 7 (Homo sapiens), sequence (P50613 whole entry): as the sequence (P50613 whole entry) above

## CN(C)C/C=C/C(=O)Nc1ccc(O[C@@H]2CCC[C@@H](Nc3ncc(Cl)c(-c4c[nH]c5ccccc45)n3)C2)cc1
[1]
  inhibition: 45.9%
[2]
  inhibition: 76.8%
[3]
  Activity: Active
[4]
  inhibition at 2.5 µM: 58%
[5]
  t1/2: 2.2 h
[6]
  inhibition at 2.5 µM: 47%
[7]
  inhibition at 0.5 µM: 0%
[8]
  inhibition at 5 µM: 47%
[9]
  Activity: Active
[10]
  IC50: > 10 µM
[11]
  inhibition: 33.9%
[12]
  IC50: 0.0422 µM
[13]
  inhibition: 78%
[14]
  AUClast: 1832 ng·h/mL
[15]
  IC50: 0.16 µM
[16]
  inhibition: 45.9%
[17]
  IC50: 0.187 µM
[18]
  inhibition at 1 µM: 13%
[19]
  inhibition: 35.4%
[20]
  inhibition: 44.5%
[21]
  inhibition: Active
Cyclin-K (Homo sapiens)
  Activity: inactive
[22]
  inhibition: 37.8%
[23]
  IC50: 0.225 µM
[24]
  inhibition: Active
[25]
  inhibition: 45.9%
TC-71
  Activity: Active
[26]
  Cmax: 272 ng/mL
[27]
  Tmax: 2 h
[28]
  F: 17%
[29]
  AUClast: 1043 ng·h/mL
[30]
  inhibition: 40.3%
[31]
  inhibition at 2.5 µM: 15%
[32]
  inhibition at 5 µM: 74%
[33]
  Vdss: 3.9 L/kg
[34]
  Activity: 30%
